Data reported in patent US20240158446A1, “CYCLIC COMPOUND HAVING SELECTIVE INHIBITORY ACTION ON KRAS OVER HRAS AND NRAS” (CHUGAI SEIYAKU KABUSHIKI KAISHA, priority 2021, published 2024).

Tests used:
[1] = target: GDP-bound KRAS wild-type protein (Homo sapiens, UniProt P01116); experiment: Binding to KRAS by surface plasmon resonance (SPR), Single Cycle Kinetics; settings: SPR, Single Cycle Kinetics, GDP-bound KRAS wild-type protein; read-out: KRAS KD
[2] = target: GDP-bound HRAS wild-type protein (Homo sapiens, UniProt P01112); experiment: Binding to HRAS by surface plasmon resonance (SPR), Single Cycle Kinetics; settings: ratio of KD for GDP-bound HRAS wild-type protein to KD for KRAS, SPR
[3] = target: GDP-bound NRAS wild-type protein (Homo sapiens, UniProt P01111); experiment: Binding to NRAS by surface plasmon resonance (SPR), Single Cycle Kinetics; settings: ratio of KD for GDP-bound NRAS wild-type protein to KD for KRAS, SPR
[4] = system: human lung cancer strain NCI-H441; experiment: cells; settings: NCI-H441, 96 h, read-out: NCI-H441 IC50 (nM), NCI-H441 cell proliferation, 4 days, CellTiter-Glo;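 also: cell proliferation inhibition after four days measured by CellTiter-Glo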

GDP-bound KRAS wild-type protein, sequence (P01116 whole entry): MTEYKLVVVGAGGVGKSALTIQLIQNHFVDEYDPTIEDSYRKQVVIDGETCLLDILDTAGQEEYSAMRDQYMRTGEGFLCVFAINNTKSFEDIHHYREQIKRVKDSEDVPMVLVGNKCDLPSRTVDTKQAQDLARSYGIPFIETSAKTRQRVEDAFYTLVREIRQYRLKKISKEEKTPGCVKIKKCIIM
GDP-bound HRAS wild-type protein, sequence (P01112 whole entry): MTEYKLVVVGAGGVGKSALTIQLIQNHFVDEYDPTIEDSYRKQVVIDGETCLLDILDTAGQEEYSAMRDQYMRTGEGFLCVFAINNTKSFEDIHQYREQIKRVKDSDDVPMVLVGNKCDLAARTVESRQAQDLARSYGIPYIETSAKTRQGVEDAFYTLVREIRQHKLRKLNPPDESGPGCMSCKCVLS
GDP-bound NRAS wild-type protein, sequence (P01111 whole entry): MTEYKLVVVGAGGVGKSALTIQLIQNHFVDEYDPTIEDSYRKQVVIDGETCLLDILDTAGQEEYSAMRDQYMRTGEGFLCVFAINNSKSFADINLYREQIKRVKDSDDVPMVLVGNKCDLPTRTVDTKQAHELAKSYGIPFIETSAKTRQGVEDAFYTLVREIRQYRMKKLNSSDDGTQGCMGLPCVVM

CC[C@H](C)[C@@H]1NC(=O)[C@H](CC)N(C)C(=O)C[C@@H](C(=O)N(C)CC)N(C)C(=O)[C@H](C2CCCC2)N(C)C(=O)C2(CCC2)NC(=O)[C@@H]2C[C@@H](C)CN2C(=O)[C@H](CCc2ccc(C(F)(F)F)c(OC)c2)NC(=O)CN(C)C(=O)[C@H](Cc2ccc(C)cc2)N2CC/C=C\C[C@@H](C2=O)N(C)C(=O)CN(C)C1=O [PP1855]
Kd [1]: 0.19 nM
HRAS/KRAS (KD ratio) [2]: A (a compound having 10 or more and less than 20 is denoted as A)
NRAS/KRAS (KD ratio) [3]: AA (a compound having 20 or more is denoted as AA)
IC50 [4]: 17.7 nM

CC[C@H](C)[C@@H]1NC(=O)[C@H](CC)N(C)C(=O)C[C@@H](C(=O)N(C)C)N(C)C(=O)[C@H](C2CCCC2)N(C)C(=O)C2(CC(C)(C)C2)NC(=O)[C@@H]2C[C@H](C)CN2C(=O)[C@H](CCc2cc(F)c(C(F)(F)F)c(F)c2)NC(=O)CN(C)C(=O)[C@H](Cc2ccc(C)cc2)N2CC/C=C\C[C@@H](C2=O)N(C)C(=O)CN(C)C1=O [PP1856]
Kd [1]: 0.11 nM
HRAS/KRAS (KD ratio) [2]: A (a compound having 10 or more and less than 20 is denoted as A)
NRAS/KRAS (KD ratio) [3]: A (a compound having 10 or more and less than 20 is denoted as A)
IC50 [4]: 1.4 nM

CC[C@H](C)[C@@H]1NC(=O)[C@H](CC2CC2)N(C)C(=O)C[C@@H](C(=O)N(C)C)N(C)C(=O)[C@H](C2CCCC2)N(C)C(=O)C2(CCC2)NC(=O)[C@@H]2C[C@@H](C)CN2C(=O)[C@H](CCc2ccc(C(F)(F)F)c(OC)c2)NC(=O)CN(C)C(=O)[C@H](Cc2ccc(C)cc2)N2CC/C=C\C[C@@H](C2=O)N(C)C(=O)CN(C)C1=O [PP1863]
Kd [1]: 0.13 nM
HRAS/KRAS (KD ratio) [2]: A (a compound having 10 or more and less than 20 is denoted as A)
NRAS/KRAS (KD ratio) [3]: A (a compound having 10 or more and less than 20 is denoted as A)
IC50 [4]: 88.8 nM

CC[C@H](C)[C@@H]1NC(=O)[C@H](CC(C)C)N(C)C(=O)C[C@@H](C(=O)N(C)C)N(C)C(=O)[C@H](C2CCCC2)N(C)C(=O)C2(CCC2)NC(=O)[C@@H]2C[C@H](C)CN2C(=O)[C@H](CCc2cc(F)c(C(F)(F)F)c(F)c2)NC(=O)CN(C)C(=O)[C@H](Cc2ccc(C)cc2)N2CC/C=C\C[C@@H](C2=O)N(C)C(=O)CN(C)C1=O [PP1864]
Kd [1]: 0.064 nM
HRAS/KRAS (KD ratio) [2]: B (a compound having 3 or more and less than 10 is denoted as B)
NRAS/KRAS (KD ratio) [3]: A (a compound having 10 or more and less than 20 is denoted as A)
IC50 [4]: 10.2 nM

CC[C@H](C)[C@@H]1NC(=O)[C@H](CC(C)C)N(C)C(=O)C[C@@H](C(=O)N(C)C)N(C)C(=O)[C@H](C2CCCC2)N(C)C(=O)C2(CCC2)NC(=O)[C@@H]2C[C@@H](C)CN2C(=O)[C@H](CCc2cc(F)c(C(F)(F)F)c(F)c2)NC(=O)CN(C)C(=O)[C@H](Cc2ccc(C)cc2)N2CC/C=C\C[C@@H](C2=O)N(C)C(=O)CN(C)C1=O [PP1866]
Kd [1]: 0.093 nM
HRAS/KRAS (KD ratio) [2]: B (a compound having 3 or more and less than 10 is denoted as B)
NRAS/KRAS (KD ratio) [3]: A (a compound having 10 or more and less than 20 is denoted as A)
IC50 [4]: 11.1 nM

CC[C@H](C)[C@@H]1NC(=O)[C@H](CC(C)C)N(C)C(=O)C[C@@H](C(=O)N(C)C)N(C)C(=O)[C@H](C2CCCC2)N(C)C(=O)C2(CCC2)NC(=O)[C@@H]2C[C@@H](C)CN2C(=O)[C@H](CCc2ccc(C(F)(F)F)c(OC)c2)NC(=O)CN(C)C(=O)[C@H](Cc2ccc(C)cc2)N2CC/C=C\C[C@@H](C2=O)N(C)C(=O)CN(C)C1=O [PP1867]
Kd [1]: 0.17 nM
HRAS/KRAS (KD ratio) [2]: B (a compound having 3 or more and less than 10 is denoted as B)
NRAS/KRAS (KD ratio) [3]: A (a compound having 10 or more and less than 20 is denoted as A)
IC50 [4]: 47.8 nM

CC[C@H](C)[C@@H]1NC(=O)[C@H](CC)N(C)C(=O)C[C@@H](C(=O)N(C)CC)N(C)C(=O)[C@H](C2CCCC2)N(C)C(=O)C2(CC(C)(C)C2)NC(=O)[C@@H]2C[C@H](C)CN2C(=O)[C@H](CCc2ccc(C(F)(F)F)c(OC)c2)NC(=O)CN(C)C(=O)[C@H](Cc2ccc(C)cc2)N2CC/C=C\C[C@@H](C2=O)N(C)C(=O)CN(C)C1=O [PP1868]
Kd [1]: 0.087 nM
HRAS/KRAS (KD ratio) [2]: B (a compound having 3 or more and less than 10 is denoted as B)
NRAS/KRAS (KD ratio) [3]: A (a compound having 10 or more and less than 20 is denoted as A)
IC50 [4]: 10.7 nM

CCO[C@@H]1C[C@H]2C(=O)NC3(CCC3)C(=O)N(C)[C@@H](C3CCCC3)C(=O)N(C)[C@H](C(=O)N(C)CC)CC(=O)N(C)[C@@H](CC)C(=O)N[C@@H]([C@@H](C)CC)C(=O)N(C)CC(=O)N(C)[C@H]3C/C=C\CCN(C3=O)[C@@H](Cc3ccc(C)cc3)C(=O)N(C)CC(=O)N[C@@H](CCc3ccc(C(F)(F)F)c(OC)c3)C(=O)N2C1 [PP1869]
Kd [1]: 0.13 nM
HRAS/KRAS (KD ratio) [2]: A (a compound having 10 or more and less than 20 is denoted as A)
NRAS/KRAS (KD ratio) [3]: A (a compound having 10 or more and less than 20 is denoted as A)
IC50 [4]: 36.4 nM

CC[C@H](C)[C@@H]1NC(=O)[C@H](CC)N(C)C(=O)C[C@@H](C(=O)N(C)CC)N(C)C(=O)[C@H](C2CCCC2)N(C)C(=O)C2(CC(C)(C)C2)NC(=O)[C@@H]2C[C@@H](C)CN2C(=O)[C@H](CCc2ccc(C(F)(F)F)c(OC)c2)NC(=O)CN(C)C(=O)[C@H](Cc2ccc(C)cc2)N2CC/C=C\C[C@@H](C2=O)N(C)C(=O)CN(C)C1=O [PP1870]
Kd [1]: 0.19 nM
HRAS/KRAS (KD ratio) [2]: A (a compound having 10 or more and less than 20 is denoted as A)
NRAS/KRAS (KD ratio) [3]: A (a compound having 10 or more and less than 20 is denoted as A)
IC50 [4]: 12.4 nM

CCC[C@H]1C(=O)N[C@@H]([C@@H](C)CC)C(=O)N(C)CC(=O)N(C)[C@H]2C/C=C\CCN(C2=O)[C@@H](Cc2ccc(C)cc2)C(=O)N(C)CC(=O)N[C@@H](CCc2ccc(C(F)(F)F)c(OC)c2)C(=O)N2C[C@H](OCC)C[C@H]2C(=O)NC2(CCC2)C(=O)N(C)[C@@H](C2CCCC2)C(=O)N(C)[C@H](C(=O)N(C)C)CC(=O)N1C [PP1871]
Kd [1]: 0.099 nM
HRAS/KRAS (KD ratio) [2]: A (a compound having 10 or more and less than 20 is denoted as A)
NRAS/KRAS (KD ratio) [3]: A (a compound having 10 or more and less than 20 is denoted as A)
IC50 [4]: 13.1 nM

CCO[C@@H]1C[C@H]2C(=O)NC3(CC(C)(C)C3)C(=O)N(C)[C@@H](C3CCCC3)C(=O)N(C)[C@H](C(=O)N(C)CC)CC(=O)N(C)[C@@H](CC)C(=O)N[C@@H]([C@@H](C)CC)C(=O)N(C)CC(=O)N(C)[C@H]3C/C=C\CCN(C3=O)[C@@H](Cc3ccc(C)cc3)C(=O)N(C)CC(=O)N[C@@H](CCc3ccc(C(F)(F)F)c(OC)c3)C(=O)N2C1 [PP1872]
Kd [1]: 0.12 nM
HRAS/KRAS (KD ratio) [2]: A (a compound having 10 or more and less than 20 is denoted as A)
NRAS/KRAS (KD ratio) [3]: A (a compound having 10 or more and less than 20 is denoted as A)
IC50 [4]: 12.4 nM

CCO[C@@H]1C[C@H]2C(=O)NC3(CC(C)(C)C3)C(=O)N(C)[C@@H](C3CCCC3)C(=O)N(C)[C@H](C(=O)N(C)C)CC(=O)N(C)[C@@H](CC)C(=O)N[C@@H]([C@@H](C)CC)C(=O)N(C)CC(=O)N(C)[C@H]3C/C=C\CCN(C3=O)[C@@H](Cc3ccc(C)cc3)C(=O)N(C)CC(=O)N[C@@H](CCc3ccc(C(F)(F)F)c(OC)c3)C(=O)N2C1 [PP1873]
Kd [1]: 0.075 nM
HRAS/KRAS (KD ratio) [2]: B (a compound having 3 or more and less than 10 is denoted as B)
NRAS/KRAS (KD ratio) [3]: A (a compound having 10 or more and less than 20 is denoted as A)
IC50 [4]: 8.5 nM

CC[C@H](C)[C@@H]1NC(=O)[C@H](CC)N(C)C(=O)C[C@@H](C(=O)N(C)CC)N(C)C(=O)[C@H](C2CCCC2)N(C)C(=O)C2(CC(C)(C)C2)NC(=O)[C@@H]2C[C@H](C)CN2C(=O)[C@H](CCc2ccc(C(F)(F)F)c(Cl)c2)NC(=O)CN(C)C(=O)[C@H](Cc2ccc(C)cc2)N2CC/C=C\C[C@@H](C2=O)N(C)C(=O)CN(C)C1=O [PP1874]
Kd [1]: 0.13 nM
HRAS/KRAS (KD ratio) [2]: A (a compound having 10 or more and less than 20 is denoted as A)
NRAS/KRAS (KD ratio) [3]: A (a compound having 10 or more and less than 20 is denoted as A)
IC50 [4]: 9.9 nM

CC[C@H](C)[C@@H]1NC(=O)[C@H](CC)N(C)C(=O)C[C@@H](C(=O)N(C)CC)N(C)C(=O)[C@H](C2CCCC2)N(C)C(=O)C2(CC(C)(C)C2)NC(=O)[C@@H]2C[C@@H](C)CN2C(=O)[C@H](CCc2ccc(C(F)(F)F)c(Cl)c2)NC(=O)CN(C)C(=O)[C@H](Cc2ccc(C)cc2)N2CC/C=C\C[C@@H](C2=O)N(C)C(=O)CN(C)C1=O [PP1876]
Kd [1]: 0.2 nM
HRAS/KRAS (KD ratio) [2]: A (a compound having 10 or more and less than 20 is denoted as A)
NRAS/KRAS (KD ratio) [3]: A (a compound having 10 or more and less than 20 is denoted as A)
IC50 [4]: 23 nM

CCO[C@@H]1C[C@H]2C(=O)NC3(CC(C)(C)C3)C(=O)N(C)[C@@H](C3CCCC3)C(=O)N(C)[C@H](C(=O)N(C)C)CC(=O)N(C)[C@@H](CC)C(=O)N[C@@H]([C@@H](C)CC)C(=O)N(C)CC(=O)N(C)[C@H]3C/C=C\CCN(C3=O)[C@@H](Cc3ccc(C)cc3)C(=O)N(C)CC(=O)N[C@@H](CCc3ccc(C(F)(F)F)c(Cl)c3)C(=O)N2C1 [PP1878]
Kd [1]: 0.063 nM
HRAS/KRAS (KD ratio) [2]: A (a compound having 10 or more and less than 20 is denoted as A)
NRAS/KRAS (KD ratio) [3]: A (a compound having 10 or more and less than 20 is denoted as A)
IC50 [4]: 8.8 nM

CCO[C@@H]1C[C@H]2C(=O)NC3(CCC3)C(=O)N(C)[C@@H](C3CCCC3)C(=O)N(C)[C@H](C(=O)N(C)CC)CC(=O)N(C)[C@@H](CC3CC3)C(=O)N[C@@H]([C@@H](C)CC)C(=O)N(C)CC(=O)N(C)[C@H]3C/C=C\CCN(C3=O)[C@@H](Cc3ccc(C)cc3)C(=O)N(C)CC(=O)N[C@@H](CCc3ccc(C(F)(F)F)c(OC)c3)C(=O)N2C1 [PP1879]
Kd [1]: 0.18 nM
HRAS/KRAS (KD ratio) [2]: B (a compound having 3 or more and less than 10 is denoted as B)
NRAS/KRAS (KD ratio) [3]: A (a compound having 10 or more and less than 20 is denoted as A)
IC50 [4]: 16.9 nM
